Molecules are shown by their SMILES. pEC50: −log10 of the molar value. Where two headings read alike, the source gives them in different places.

Data on twelve molecules can be found in patent US8536354B2, “Steroidal ligands and their use in gene switch modulation” (Intrexon Corporation, priority 2008, dated 2013).

Assay [1] concerns the target T1, wild-type CfEcR (GAL4-CfEcR-DEF with VP16-RXR-USP chimera) (Choristoneura fumiferana, UniProt O77255).
T1 sequence (O77255 219-541): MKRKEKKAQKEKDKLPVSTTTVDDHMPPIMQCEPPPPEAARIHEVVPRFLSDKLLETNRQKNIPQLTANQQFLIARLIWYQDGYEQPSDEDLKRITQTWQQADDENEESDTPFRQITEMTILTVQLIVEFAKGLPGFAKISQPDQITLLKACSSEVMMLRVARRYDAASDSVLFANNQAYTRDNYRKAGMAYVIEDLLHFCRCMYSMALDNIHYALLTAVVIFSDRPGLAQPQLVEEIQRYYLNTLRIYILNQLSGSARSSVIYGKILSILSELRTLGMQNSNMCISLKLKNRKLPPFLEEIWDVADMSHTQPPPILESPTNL
T1 sequence (P28702 1-533 partner): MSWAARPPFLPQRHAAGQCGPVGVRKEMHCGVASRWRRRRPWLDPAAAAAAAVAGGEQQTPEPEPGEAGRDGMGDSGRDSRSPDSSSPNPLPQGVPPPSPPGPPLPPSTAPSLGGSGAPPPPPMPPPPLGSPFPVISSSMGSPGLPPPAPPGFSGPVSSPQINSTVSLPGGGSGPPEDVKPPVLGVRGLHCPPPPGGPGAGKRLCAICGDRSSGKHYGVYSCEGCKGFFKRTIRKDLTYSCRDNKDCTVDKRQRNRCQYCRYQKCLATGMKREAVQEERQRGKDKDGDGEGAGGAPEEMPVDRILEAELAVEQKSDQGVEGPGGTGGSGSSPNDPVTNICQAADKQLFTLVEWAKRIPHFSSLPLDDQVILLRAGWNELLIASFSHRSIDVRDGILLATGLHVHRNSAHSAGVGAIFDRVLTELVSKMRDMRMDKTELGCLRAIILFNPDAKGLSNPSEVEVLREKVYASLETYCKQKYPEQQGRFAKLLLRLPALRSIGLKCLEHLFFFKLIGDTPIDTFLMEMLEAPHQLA
The assay can be described thus: Two-hybrid gene switch assay, luciferase reporter, wild-type CfEcR, mouse NIH3T3 cells. For orientation: Reporter assays use an easily measured gene product as a stand-in for the process of interest.

In assay [2] the target is T2, TmEcR (GAL4-EcR DEF with VP16-RXR partner) (Tenebrio molitor, UniProt O02035).
T2 sequence (O02035 194-491): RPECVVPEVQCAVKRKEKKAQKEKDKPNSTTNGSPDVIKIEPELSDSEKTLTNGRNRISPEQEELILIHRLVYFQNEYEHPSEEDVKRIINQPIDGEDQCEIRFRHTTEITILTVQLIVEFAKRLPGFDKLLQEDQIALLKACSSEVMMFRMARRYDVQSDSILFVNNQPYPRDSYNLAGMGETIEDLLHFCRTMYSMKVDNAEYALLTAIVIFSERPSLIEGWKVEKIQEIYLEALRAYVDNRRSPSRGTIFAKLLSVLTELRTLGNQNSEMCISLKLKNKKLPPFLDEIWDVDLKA
T2 sequence (P28704 1-520 partner): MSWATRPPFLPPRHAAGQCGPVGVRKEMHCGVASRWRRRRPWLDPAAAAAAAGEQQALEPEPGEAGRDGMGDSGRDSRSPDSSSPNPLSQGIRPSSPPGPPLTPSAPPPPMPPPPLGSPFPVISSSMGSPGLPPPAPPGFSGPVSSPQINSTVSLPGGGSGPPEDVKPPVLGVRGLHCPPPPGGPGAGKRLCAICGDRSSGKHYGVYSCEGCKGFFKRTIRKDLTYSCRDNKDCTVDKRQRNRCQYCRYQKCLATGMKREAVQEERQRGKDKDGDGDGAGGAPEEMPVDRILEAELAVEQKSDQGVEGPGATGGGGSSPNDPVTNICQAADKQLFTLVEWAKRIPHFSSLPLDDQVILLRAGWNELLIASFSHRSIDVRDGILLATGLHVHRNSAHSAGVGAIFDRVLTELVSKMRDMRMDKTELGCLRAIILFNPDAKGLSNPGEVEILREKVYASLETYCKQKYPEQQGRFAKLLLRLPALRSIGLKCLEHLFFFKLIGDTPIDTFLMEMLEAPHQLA
The assay can be described thus: Two-hybrid gene switch assay, luciferase reporter, TmEcR, mouse NIH3T3 cells. To be noted: EC50, FIG. 14A/14B, GAL4-EcR(DEF).

The target of assay [3] is wild-type Aedes aegypti EcR (AaEcR; GAL4-EcR DEF with VP16-RXR-USP chimera) (Aedes aegypti, UniProt P49880). The assay is described as follows: Two-hybrid gene switch assay, luciferase reporter, wild-type AaEcR, mouse NIH3T3 cells. Format: cell-based. To be noted: FIG. 14A/14B, GAL4-EcR(DEF) with VP16-RXR-USP chimera, read-out: EC50.
Assay [4] concerns the target BmEcR (GAL4-EcR DEF with VP16-RXR-USP chimera) (Bombyx mori, UniProt P49881). The assay can be described thus: Two-hybrid gene switch assay, luciferase reporter, BmEcR, mouse NIH3T3 cells. In kind it is cell-based.
The target in assay [5] is T3, AmaEcR (GAL4-EcR DEF with VP16-RXR-USP chimera) (Amblyomma americanum, UniProt O44338).
T3 sequence (O44338 255-570): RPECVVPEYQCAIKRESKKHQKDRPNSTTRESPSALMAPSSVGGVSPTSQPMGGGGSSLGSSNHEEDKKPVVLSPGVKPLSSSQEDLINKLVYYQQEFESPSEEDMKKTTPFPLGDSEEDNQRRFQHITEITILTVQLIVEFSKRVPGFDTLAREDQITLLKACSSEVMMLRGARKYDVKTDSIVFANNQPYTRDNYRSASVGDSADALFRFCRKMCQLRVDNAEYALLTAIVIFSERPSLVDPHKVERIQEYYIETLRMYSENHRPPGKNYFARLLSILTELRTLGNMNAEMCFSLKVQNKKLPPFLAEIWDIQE
T3 sequence (P28702 1-533 partner): T1 sequence (P28702 1-533 partner)
The assay can be described thus: Two-hybrid gene switch assay, luciferase reporter, AmaEcR, mouse NIH3T3 cells. To be noted: EC50, FIG. 14A/14B, GAL4-EcR(DEF) with VP16-RXR-USP chimera.

For assay [6], the target named is T4, BaEcR (GAL4-EcR DEF with VP16-RXR-USP chimera) (Bemisia tabaci, UniProt A0A6M3RDR8).
T4 sequence (A0A6M3RDR8 115-530): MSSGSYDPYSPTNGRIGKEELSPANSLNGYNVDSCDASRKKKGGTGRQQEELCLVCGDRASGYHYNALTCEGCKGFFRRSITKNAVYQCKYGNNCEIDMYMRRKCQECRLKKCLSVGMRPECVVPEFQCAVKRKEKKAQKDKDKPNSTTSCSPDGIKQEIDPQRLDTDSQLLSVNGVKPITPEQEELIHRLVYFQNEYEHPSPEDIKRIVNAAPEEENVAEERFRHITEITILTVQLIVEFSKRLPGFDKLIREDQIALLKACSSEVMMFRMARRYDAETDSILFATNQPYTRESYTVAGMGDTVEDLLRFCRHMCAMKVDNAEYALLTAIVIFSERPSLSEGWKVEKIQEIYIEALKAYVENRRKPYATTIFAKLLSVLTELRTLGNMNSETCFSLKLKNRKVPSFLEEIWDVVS
T4 sequence (P28702 1-533 partner): T1 sequence (P28702 1-533 partner)
The assay can be described thus: Two-hybrid gene switch assay, luciferase reporter, BaEcR, mouse NIH3T3 cells. To be noted: EC50, FIG. 14A/14B, GAL4-EcR(DEF) with VP16-RXR-USP chimera.

Chain of BmEcR (GAL4-EcR DEF with VP16-RXR-USP chimera) (P49881 other isoform, or with tags, fused parts or gaps, change not shown): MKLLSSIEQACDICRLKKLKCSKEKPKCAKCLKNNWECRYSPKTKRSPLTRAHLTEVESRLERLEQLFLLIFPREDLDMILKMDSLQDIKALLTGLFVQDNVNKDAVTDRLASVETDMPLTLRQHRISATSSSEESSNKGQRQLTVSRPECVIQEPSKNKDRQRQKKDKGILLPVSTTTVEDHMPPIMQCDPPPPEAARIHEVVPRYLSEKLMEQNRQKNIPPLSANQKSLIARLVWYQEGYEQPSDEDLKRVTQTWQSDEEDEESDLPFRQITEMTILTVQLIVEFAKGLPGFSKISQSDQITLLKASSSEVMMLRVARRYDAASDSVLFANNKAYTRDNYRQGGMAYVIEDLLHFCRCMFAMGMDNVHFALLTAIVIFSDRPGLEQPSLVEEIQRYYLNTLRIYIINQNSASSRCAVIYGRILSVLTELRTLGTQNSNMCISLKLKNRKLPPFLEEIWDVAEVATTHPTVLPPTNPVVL
Chain of wild-type Aedes aegypti EcR (AaEcR; GAL4-EcR DEF with VP16-RXR-USP chimera) (P49880 with tags, fused parts or gaps limits assumed, change not shown): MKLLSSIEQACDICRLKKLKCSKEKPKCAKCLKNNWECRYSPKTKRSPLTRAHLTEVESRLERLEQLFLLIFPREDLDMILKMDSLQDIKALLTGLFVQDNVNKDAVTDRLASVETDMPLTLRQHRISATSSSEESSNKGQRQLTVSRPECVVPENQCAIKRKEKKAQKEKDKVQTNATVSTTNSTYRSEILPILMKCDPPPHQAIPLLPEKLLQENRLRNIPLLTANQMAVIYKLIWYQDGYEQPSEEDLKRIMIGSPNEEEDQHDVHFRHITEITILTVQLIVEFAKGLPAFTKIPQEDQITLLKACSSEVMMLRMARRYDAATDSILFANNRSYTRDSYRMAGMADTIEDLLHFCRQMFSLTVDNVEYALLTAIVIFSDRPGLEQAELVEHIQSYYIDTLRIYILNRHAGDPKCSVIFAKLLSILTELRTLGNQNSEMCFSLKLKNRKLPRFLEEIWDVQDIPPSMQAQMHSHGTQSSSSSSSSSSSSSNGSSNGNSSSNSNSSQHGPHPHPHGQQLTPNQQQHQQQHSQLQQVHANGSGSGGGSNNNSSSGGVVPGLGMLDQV

Regarding `CC(C)(O)CC[C@@H](OC(=O)c1ccc[nH]1)[C@](C)(O)[C@H]1CC[C@@]2(O)C3=CC(=O)[C@@H]4C[C@@H](O)[C@@H](O)C[C@]4(C)[C@H]3CC[C@]12C`, the pEC50 in assay [1] was less than 4.48; in assay [2] it was roughly 4.70; in assay [3], roughly 5.00; in assay [4], less than 4.48; in assay [5] it was roughly 5.30; in assay [6] it was roughly 4.82.
As for `CC(=O)OCC(=O)O[C@H](CCC(C)(C)O)[C@](C)(O)[C@H]1CC[C@@]2(O)C3=CC(=O)[C@@H]4C[C@@H](O)[C@@H](O)C[C@]4(C)[C@H]3CC[C@]12C` [20-hydroxyecdysone 22-acetoxyacetate], the pEC50 in assay [1] was less than 4.48; in assay [2], roughly 5.00; in assay [3], roughly 5.48; in assay [4], less than 4.48; in assay [5], roughly 5.48; in assay [6] it was roughly 4.92.
Consider `CC(C)(O)CC[C@@H](O)[C@](C)(O)[C@H]1CC[C@@]2(O)C3=CC(=O)[C@@H]4C[C@H]5OC(C)(C)O[C@H]5C[C@]4(C)[C@H]3CC[C@]12C` [20-hydroxyecdysone-2,3-acetonide], for which the pEC50 in assay [1] is less than 4.48; in assay [2], roughly 5.00; in assay [3], roughly 4.82; in assay [4], less than 4.48; in assay [5], roughly 5.15; in assay [6], roughly 4.82.
For the molecule `C[C@@H](CO)CC[C@@H](O)[C@](C)(O)[C@H]1CC[C@@]2(O)C3=CC(=O)[C@@H]4C[C@@H](O)[C@@H](O)C[C@]4(C)[C@H]3CC[C@]12C` [(25R)-inokosterone], the pEC50 was less than 4.48 in assay [1]; roughly 4.70 in assay [2]; roughly 5.60 in assay [3]; less than 4.48 in assay [4] (read-out: EC50); roughly 5.48 in assay [5]; roughly 5.00 in assay [6].
In the case of `C[C@H](CO)CC[C@@H](O)[C@](C)(O)[C@H]1CC[C@@]2(O)C3=CC(=O)[C@@H]4C[C@@H](O)[C@@H](O)C[C@]4(C)[C@H]3CC[C@]12C` [(25S)-inokosterone], the pEC50 in assay [1] is less than 4.48; in assay [2], roughly 5.00; in assay [3] it was roughly 5.40; in assay [4] (read-out: EC50), less than 4.48; in assay [5] it was roughly 5.48; in assay [6] it was roughly 5.00.
`CC(C(O)CCC(C)(C)O)C1CCC2(O)C3=CC(=O)C4CC(O)CCC4(C)C3CCC12C` (centres unmarked) [Compound 2-deoxyecdysone]: the pEC50 in assay [1] is less than 4.48; in assay [2], less than 4.48; in assay [3] it was roughly 5.00; in assay [4] (read-out: EC50), less than 4.48; in assay [5] it was roughly 6.00; in assay [6], less than 4.48.
Regarding `CC(C)(O)CC[C@@H](O)[C@](C)(O)[C@H]1CC[C@@]2(O)C3=C[C@H](O)[C@@H]4C[C@@H](O)[C@@H](O)C[C@]4(C)[C@H]3CC[C@]12C` [Compound 6a-hydroxy-20-hydroxyecdysone], the pEC50 was less than 4.48 in assay [1]; less than 4.48 in assay [2]; roughly 4.92 in assay [3]; less than 4.48 in assay [4]; 5.00 in assay [5]; less than 4.48 in assay [6].
For `CC(C)(O)CC[C@@H](O)[C@](C)(O)[C@H]1CC[C@@]2(O)C3=C[C@@H](O)[C@@H]4C[C@@H](O)[C@@H](O)C[C@]4(C)[C@H]3CC[C@]12C` [Compound 6b-hydroxy-20-hydroxyecdysone], the pEC50 was less than 4.48 in assay [1]; roughly 4.70 in assay [2]; roughly 5.22 in assay [3]; less than 4.48 in assay [4]; roughly 5.48 in assay [5]; roughly 4.70 in assay [6].
Turning to `CC(=O)O[C@H](CCC(C)(C)O)[C@](C)(O)[C@H]1CC[C@@]2(O)C3=CC(=O)[C@@H]4C[C@@H](O)[C@@H](O)C[C@]4(C)[C@H]3CC[C@]12C` [Compound 20-hydroxyecdysone-22-acetate], the pEC50 is less than 4.48 in assay [1]; roughly 5.70 in assay [2]; roughly 5.70 in assay [3]; less than 4.48 in assay [4] (read-out: EC50); roughly 5.70 in assay [5]; roughly 5.70 in assay [6].
For the molecule `CC(C)(O)CCC(=O)[C@](C)(O)[C@H]1CC[C@@]2(O)C3=CC(=O)[C@@H]4C[C@@H](O)[C@@H](O)C[C@]4(C)[C@H]3CC[C@]12C` [Compound 22-dehydro-20-hydroxyecdysone], the pEC50 in assay [1] is less than 4.48; in assay [2], roughly 4.82; in assay [3], roughly 5.70; in assay [4] it was less than 4.48; in assay [5], roughly 5.15; in assay [6] it was roughly 4.92.
With `CC(C)(O)CC[C@@H](O)[C@](C)(O)[C@H]1CC[C@@]2(O)C3=CC(=O)[C@@H]4C[C@@H](O)[C@@H](O)C[C@]4(C)C3=CC[C@]12C` [Compound 25-hydroxydacryhainansterone], the pEC50 in assay [1] was less than 4.48; in assay [2] it was roughly 4.70; in assay [3], roughly 5.30; in assay [4], less than 4.48; in assay [5], roughly 5.48; in assay [6], roughly 4.82.
Regarding `C[C@@H]1C(=O)O[C@H](C)[C@H]1C[C@@H](O)[C@](C)(O)[C@H]1CC[C@@]2(O)C3=CC(=O)[C@@H]4C[C@@H](O)[C@@H](O)C[C@]4(C)[C@H]3CC[C@]12C` [cyasterone], the pEC50 in assay [1] is roughly 6.00; in assay [2] it was less than 4.48; in assay [3], 5.52; in assay [5] it was roughly 6.52; in assay [6], roughly 5.00.

What is called pEC50 is −log10 of the EC50, conventionally taken in molar units.
